Measurements taken from patent US10208015B2, “Aryl-triazolyl pyridines as pest control agents” (BAYER ANIMAL HEALTH GMBH, priority 2014, dated 2019).
Read-outs that look alike come from different tables or passages of the source.

Legend:
Amblyomma hebraeum = Amblyomma hebraeum test (tick nymphs, immersion); type: in vivo; settings: application rate 100 ppm, after 42 days
From the text: Amblyomma hebaraeum Test • Solvent: dimethyl sulphoxide […] Tick nymphs (Amblyomma hebraeum) are placed into perforated plastic beakers and immersed in the desired concentration for one minute. The ticks are transferred on filter paper into a Petri dish and stored in a climate-controlled cabinet.

Myzus persicae = Myzus persicae spray test; type: in vivo; settings: application rate 100 g/ha, after 6 days
Method: Myzus Persicae—Spray Test […] To produce further test concentrations, the preparation is diluted with emulsifier-containing water. Discs of Chinese cabbage leaves (Brassica pekinensis) infested by all stages of the green peach aphid (Myzus persicae) are sprayed with an active compound preparation of the desired concentration.

[1] = system: Boophilus microplus Parkhurst strain, SP-resistant; assay: Boophilus microplus dip test; type: in vivo; settings: application rate 100 ppm, assessed after 7 days
Method: Boophilus microplus—Dip Test
• Test animals: cattle ticks (Boophilus microplus) Parkhurst strain, SP-resistant • Solvent: dimethyl sulphoxide
10 mg of active compound are dissolved in 0.5 ml of dimethyl sulphoxide. To produce a suitable formulation, the active compound solution is diluted with water to the concentration desired in each case.
This active compound preparation is pipetted into tubes. 8-10 engorged adult female cattle ticks (Boophilus microplus) are transferred into a further tube with holes. The tube is immersed into the active compound preparation, and all the ticks are completely wetted. After the liquid has run out, the ticks are transferred on filter discs into plastic dishes and stored in a climate-controlled room.
Efficacy is assessed after 7 days by laying of fertile eggs. Eggs which are not visibly fertile are stored in a climate-controlled cabinet until the larvae hatch after about 42 days. An efficacy of 100% means that none of the ticks has laid any fertile eggs; 0% means that all the eggs are fertile.

Musca domestica = Musca domestica test; type: in vivo; settings: application rate 100 ppm, adult houseflies, after 2 days
Method: (§1) • Solvent: dimethyl sulphoxide
(§2) To produce a suitable preparation of active compound, 10 mg of active compound are mixed with 0.5 ml of dimethyl sulphoxide, and the concentrate is diluted with water to the desired concentration.
Vessels containing a sponge treated with sugar solution and the active compound preparation of the desired concentration are populated with 10 adult houseflies (Musca domestica).
After 2 days, the kill in % is determined. 100% means that all of the flies have been killed; 0% means that none of the flies have been killed.

Boophilus microplus = Boophilus microplus injection test; type: in vivo; settings: application rate 20 μg/animal, assessed after 7 days
Method: Boophilus microplus—Injection Test • Solvent: dimethyl sulphoxide […] The animals are transferred into dishes and kept in a climate-controlled room. Efficacy is assessed after 7 days by laying of fertile eggs. Eggs which are not visibly fertile are stored in a climate-controlled cabinet until the larvae hatch after about 42 days.

Rhipicephalus sanguineus = Rhipicephalus sanguineus in vitro contact test with adult brown dog ticks; type: in vivo; settings: after 48 h
Method: Rhipicephalus sanguineus—In Vitro Contact Tests with Adult Brown Dog Ticks
(§3) For the coating of the test tubes, 9 mg of active compound are first dissolved in 1 ml of acetone p.a. and then diluted to the desired concentration with acetone p.a. 250 μl of the solution are distributed homogeneously on the inner walls and the base of a 25 ml test tube by turning and rocking on an orbital shaker (rocking rotation at 30 rpm for 2 h). With 900 ppm active compound solution and internal surface 44.7 cm^2, given homogeneous distribution, an area-based dose of 5 μg/cm^2 is achieved.
After the solvent has evaporated off, the tubes are populated with 5-10 adult dog ticks (Rhipicephalus sanguineus), sealed with a perforated plastic lid and incubated in a horizontal position in the dark at room temperature and ambient humidity. After 48 h, efficacy is determined. To this end, the ticks are knocked to the floor of the tube and incubated on a hotplate at 45-50° C. for not more than 5 min. Ticks which remain motionless on the floor or move in such an uncoordinated manner that they are unable to deliberately avoid the heat by climbing upwards are considered to be dead or moribund.
An efficacy of 100% means that all the ticks were dead or moribund. 0% efficacy means that none of the ticks had been harmed.

Spodoptera frugiperda = Spodoptera frugiperda spray test; type: in vivo; settings: application rate 100 g/ha, after 7 days
Method: Spodoptera Frugiperda—Spray Test
(§4) • Solvent: 78.0 parts by weight of acetone • 1.5 parts by weight of dimethylformamide • Emulsifier: alkylaryl polyglycol ether
(§5) To produce a suitable preparation of active compound, 1 part by weight of active compound is dissolved using the stated parts by weight of solvent and made up with water containing an emulsifier concentration of 1000 ppm until the desired concentration is attained. To produce further test concentrations, the preparation is diluted with emulsifier-containing water.
Leaf discs of maize (Zea mays) are sprayed with an active compound preparation of the desired concentration and, after drying, populated with caterpillars of the armyworm (Spodopterafrugiperda).
After 7 days, the efficacy in % is determined. 100% means that all the caterpillars have been killed; 0% means that no caterpillars have been killed.

Ctenocephalides felis [2] = assay: Ctenocephalides felis in vitro contact test with adult cat fleas; type: in vivo; settings: application rate 500 g/ha (5 μg/cm^2), after 48 h
Method: Ctenocephalides felis—In Vitro Contact Tests with Adult Cat Fleas
as §3
After the solvent has evaporated off, the tubes are populated with 5-10 adult cat fleas (Ctenocephalides felis), sealed with a perforated plastic lid and incubated in a horizontal position at room temperature and ambient humidity. After 48 h, efficacy is determined. To this end, the test tubes are stood upright and the fleas are knocked to the base of the tube. Fleas which remain motionless at the base or move in an uncoordinated manner are considered to be dead or moribund.
100% efficacy means that all the fleas were dead or moribund. 0% efficacy means that no fleas were harmed.

[3] = logP by HPLC on reversed-phase column (C18), EEC Directive 79/831 Annex V.A8; type: physicochemical
Tetranychus urticae = Tetranychus urticae spray test, OP-resistant; type: in vivo; settings: after 6 days
Method: Tetranychus Urticae—Spray Test, OP-Resistant
as §4
To produce further test concentrations, the preparation is diluted with emulsifier-containing water.
After 6 days, the efficacy in % is determined. 100% means that all the spider mites have been killed; 0% means that none of the spider mites have been killed.

Lucilia cuprina = Lucilia cuprina test; type: in vivo; settings: application rate 100 ppm, L1 larvae, after 2 days
Method: as §1, §2
About 20 L1 larvae of the Australian sheep blowfly (Lucilia cuprina) are transferred into a test vessel containing minced horsemeat and the active compound preparation of the desired concentration.
After 2 days, the kill in % is determined. 100% means that all the larvae have been killed; 0% means that no larvae have been killed.

Ctenocephalides felis [4] = assay: Ctenocephalides felis oral test; type: in vivo; settings: application rate 100 ppm in citrated cattle blood, after 2 days
From the text: Ctenocephalides felis—Oral Test • Solvent: dimethyl sulphoxide […] Dilution with citrated cattle blood gives the desired concentration. About 20 unfed adult cat fleas (Ctenocephalides felis) are placed into a chamber which is closed at the top and bottom with gauze. A metal cylinder whose bottom end is closed with parafilm is placed onto the chamber. The cylinder contains the blood/active compound preparation, which can be imbibed by the fleas through the parafilm membrane.

Phaedon cochleariae = Phaedon cochleariae spray test; type: in vivo; settings: application rate 100 g/ha, after 7 days
Method: Phaedon Cochleariae—Spray Test
as §4, §5
After 7 days, the efficacy in % is determined. 100% means that all the beetle larvae have been killed; 0% means that no beetle larvae have been killed.

[5] = application rate 500 g/ha (5 μg/cm^2)
[6] = HPLC, C18, acetonitrile (0.1% formic acid)/water (0.09% formic acid) gradient

Structure (SMILES) | efficacy (kill in %) (Amblyomma hebraeum) [%] | efficacy in % (Myzus persicae) [%] | efficacy (laying of fertile eggs) [1] [%] | efficacy (kill in %) (Musca domestica) [%] | efficacy (laying of fertile eggs) (Boophilus microplus) [%] | efficacy (ticks dead or moribund) (Rhipicephalus sanguineus; [5]) [%] | efficacy in % (Spodoptera frugiperda) [%] | efficacy (fleas dead or moribund) (Ctenocephalides felis [2]) [%] | chromatographic logP ([3]; reversed-phase C18 HPLC column, HPLC, C18, acetonitrile (0.1% formic acid)/water (0.09% formic acid) gradient, read-out: logP) | chromatographic logP ([3]; reversed-phase C18 HPLC column, HPLC-MS method a), read-out: log P (HPLC-MS)) | efficacy in % (Tetranychus urticae; application rate 100 g/ha) [%] | efficacy (kill in %) (Lucilia cuprina) [%] | efficacy (kill in %) (Ctenocephalides felis [4]) [%] | efficacy in % (Phaedon cochleariae) [%] | logP [3, 6] | efficacy in % (Tetranychus urticae; application rate 20 g/ha) [%] | efficacy (ticks dead or moribund) (Rhipicephalus sanguineus; application rate 20 g/ha (0.2 μg/cm^2)) [%]
Cc1cc(C(F)(C(F)(F)F)C(F)(F)F)cc(C)c1-n1cc(-c2cnc(C)c(C(=O)NC3CC3)c2)nn1 [Example 1, N-cyclopropyl-5-[1-[2,6-dimethyl-4-[1,2,2,2-tetrafluoro-1-(trifluoromethyl)ethyl]phenyl]triazol-4-yl]-2-methylpyridine-3-carboxamide] | 80 | 90 | 100 | 100 | 100 | 100 | 100 | 100 | 3.3 | 3.33 | 100 | 100 | 100 | 100 | – | – | –
Cc1cc(C(F)(C(F)(F)F)C(F)(F)F)cc(C)c1-n1cc(-c2cnc(Cl)c(C(=O)NC3CC3)c2)nn1 [Example 2] | 100 | 90 | 100 | 100 | 100 | 100 | 100 | 100 | – | – | 90 | 100 | 100 | 100 | 3.8 | – | –
O=C(NC1CC1)c1cc(-c2cn(-c3c(Cl)cc(C(F)(C(F)(F)F)C(F)(F)F)cc3Cl)nn2)cnc1Cl [Example 3] | 100 | – | 100 | 100 | 100 | 100 | 100 | – | – | – | – | 100 | 100 | 100 | 3.9 | 90 | –
Cc1ncc(-c2cn(-c3c(Cl)cc(C(F)(C(F)(F)F)C(F)(F)F)cc3Cl)nn2)cc1C(=O)NC1CC1 [Example 5] | 100 | – | 100 | 100 | 100 | 100 | 100 | 100 | – | – | 100 | 100 | 100 | 100 | 3.4 | – | –
Cc1cc(C(F)(C(F)(F)F)C(F)(F)F)cc(C)c1-n1cc(-c2cnc(Cl)c(C(=O)NC3(C#N)CC3)c2)nn1 [Example 8] | 100 | – | 100 | 95 | 100 | 100 | – | 100 | – | – | 100 | 90 | 100 | 100 | 3.8 | – | –
N#CC1(NC(=O)c2cc(-c3cn(-c4c(Cl)cc(C(F)(C(F)(F)F)C(F)(F)F)cc4Cl)nn3)cnc2Cl)CC1 [Example 9] | 100 | – | 100 | 100 | 100 | – | – | 100 | – | – | 100 | 100 | 100 | 100 | 3.8 | – | 100
Cc1cc(C(F)(C(F)(F)F)C(F)(F)F)cc(C)c1-n1cc(-c2cnc(C)c(C(=O)NC3(C#N)CC3)c2)nn1 [Example 12] | – | 90 | 80 | 100 | 100 | 80 | 100 | 100 | – | – | 100 | 100 | 100 | 100 | 3.4 | – | –
Cc1cc(C(F)(C(F)(F)F)C(F)(F)F)cc(C(F)(F)F)c1-n1cc(-c2cnc(Cl)c(C(=O)NC3CC3)c2)nn1 [Example 13] | – | 90 | 100 | 100 | 100 | 100 | 100 | 100 | – | – | 100 | 100 | 100 | 100 | 3.9 | – | –
Cc1cc(C(F)(C(F)(F)F)C(F)(F)F)cc(C(F)(F)F)c1-n1cc(-c2cnc(Cl)c(C(=O)N(C)C3CC3)c2)nn1 [Example 15] | – | 90 | 100 | 100 | 100 | – | 100 | 100 | – | – | 100 | 100 | 100 | 100 | 4.3 | – | –
